According to US12240854B2, “TRAF 6 inhibitors” (Helmholtz Zentrum München - Deutsches Forschungszentrum für …, priority 2018, dated 2025):

molecular target: T1, TRAF6WTStrepII-Ubc13FH interaction (Homo sapiens, UniProt Q9Y4K3); assay: ALPHAScreen TRAF6-Ubc13 interaction assay; assay type: binding; conditions: TRAF6 100 nM, Ubc13FH 75 nM; class symbols; read-out: IC50 Alphascreen (inhibition of TRAF6-UBC13 interaction)
T1 construct: RING-Zincfinger1 (RZ1) domain (residues 50-159) of human TRAF6 wildtype; made in house; host or cells: E. coli BL21 codon plus RIPL
T1 sequence (Q9Y4K3 with tags, fused parts or gaps): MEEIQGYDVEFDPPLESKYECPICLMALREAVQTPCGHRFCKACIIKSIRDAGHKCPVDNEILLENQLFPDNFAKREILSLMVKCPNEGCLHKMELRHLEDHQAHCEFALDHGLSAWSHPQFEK
Description: In order to identify small molecules that specifically target the RZ1 domain of TRAF6 and thereby prevent its binding to Ubc13, the ALPHAScreen technology (PerkinElmer) was chosen to detect TRAF6WTStrepII-Ubc13FH interaction in High-Throughput-Screenings as well as Structure Activity Relationship (SAR) analysis.
For performance of an automated ALPHAScreen assay, all following components were pre-diluted in ALPHAScreen buffer (1×PBS, 0.5% BSA, 0.01% Tween-20). First, the TRAF6 protein (end concentration 100 nM, 30 μL volume) was added to 384-well-opti-plates involving the MultiFlo dispensing system (BioTek) followed by transfer of the compounds via the Sciclone G3 transfer station (PerkinElmer). After addition of Ubc13FH (end concentration 75 nM, 10 μL volume) with the MultiFlo system and incubation for one hour at room temperature, both beads (Strep-Tactin Alpha Donor beads and Nickel-Chelate acceptor beads; end concentrations 4 μg each, 10 μL volume each) were mixed and added using the MultiFlo system in subdued light. Read-out of the plates occurred after another hour of incubation at room temperature. Statistical parameters including the coefficient of variation, Z′ factor and signal window were calculated to determine the quality of the HTS campaign. To evaluate the efficacy of the compounds, ALPHAScreen units of compound-treated samples were referred to DMSO control treated samples. Thereby, the TRAF6D57K mutant served as the control for minimum signal and was included on every plate of the screening. Compounds that inhibited TRAF6WTStrepII-Ubc13FH by more than 25% were considered as actives. After elimination of ALPHAScreen frequent hitter compounds and His-tag frequent hitters (Schorpp, K., I. Rothenaigner, E. Salmina, et al., Identification of Small-Molecule Frequent Hitters from AlphaScreen High-Throughput Screens. J Biomol Screen, 2014. 19(5): p. 715-26), 178 compounds were defined as primary hits and were subsequently tested in five-point serial dilution assays (2.5-40 μM) in TRAF6WTStrepII-Ubc13FH ALPHAScreen experiments. Only compounds with dose-dependent effects on TRAF6WTStrepII-Ubc13FH (n=27) were taken for further research. For analog testing, all compounds were analyzed in ten-point titration (0.2-100 μM) in TRAF6WTStrepII-Ubc13FH ALPHAScreen experiments. In parallel, the compounds were tested in the ALPHAScreen TruHits Kit (PerkinElmer) to rule out unspecific interference with the ALPHAScreen technology.

Row | SMILES | IC50 | inhibition at 100 µM
1 | Cc1nn(-c2ccc3nnc(C)n3n2)c(C)c1CCC(=O)N1CCN(Cc2ccc(C(=O)O)cc2)CC1 [Example 97] | ≤ 3 µM | –
2 | COC(=O)c1cccc(CN2CCN(C(=O)CCc3c(C)nn(-c4ccc5nnc(C)n5n4)c3C)CC2)c1 [Example 98] | ≤ 10 µM | –
3 | Cc1nn(-c2ccc3nnc(C)n3n2)c(C)c1CCC(=O)N1CCN(Cc2cccc(C(=O)O)c2)CC1 [Example 99] | ≤ 3 µM | –
4 | Cc1nn(-c2ccc3nnc(C)n3n2)c(C)c1CCC(=O)N1CCN(Cc2cccc(C(N)=O)c2)CC1 [Example 100] | – | ≥ 30%
5 | CNC(=O)c1cccc(CN2CCN(C(=O)CCc3c(C)nn(-c4ccc5nnc(C)n5n4)c3C)CC2)c1 [Example 101] | ≤ 30 µM | –
6 | Cc1nn(-c2ccc3nnc(C)n3n2)c(C)c1CCC(=O)N1CCNC(Cc2ccccc2)C1 (stereo not shown) [Example 102] | ≤ 30 µM | –
7 | Cc1nn(-c2ccc3nnc(C)n3c2)c(C)c1CCC(=O)N1CCC(CCc2ccccc2)CC1 [Example 104] | – | ≥ 30%
8 | Cc1nn(-c2ccc3nnc(C)n3c2)c(C)c1CCC(=O)N1CCN(Cc2ccccc2)CC1 [Example 105] | – | ≥ 30%
9 | Cc1nn(-c2ccc3nnc(C)n3c2)c(C)c1CCC(=O)N1CCCC(Cc2ccccc2)C1 (stereo not shown) [Example 106] | – | ≥ 30%
10 | Cc1nn(-c2ccc3nnc(C)n3c2)c(C)c1CCC(=O)N1CCC(Cc2ccccc2)C1 (stereo not shown) [Example 107] | – | ≥ 30%
11 | CC(=O)c1ccc(CN2CCN(C(=O)CCc3c(C)nn(-c4ccc5nnc(C)n5n4)c3C)CC2)cc1 [Example 108] | ≤ 10 µM | –
12 | Cc1nn(-c2ccc3nnc(C)n3n2)c(C)c1CCC(=O)N1CCN(Cc2ccc(C#N)cc2)CC1 [Example 109] | ≤ 30 µM | –
13 | Cc1nn(-c2ccc3nnc(C)n3n2)c(C)c1CCC(=O)N1CCN(Cc2ccc(C(F)(F)F)cc2)CC1 [Example 110] | ≤ 30 µM | –
14 | Cc1nn(-c2ccc3nnc(C)n3n2)c(C)c1CCC(=O)N1CCN(Cc2ccc(I)cc2)CC1 [Example 111] | ≤ 30 µM | –
15 | CC(=O)Nc1ccc(CN2CCN(C(=O)CCc3c(C)nn(-c4ccc5nnc(C)n5n4)c3C)CC2)cc1 [Example 112] | ≤ 10 µM | –
16 | Cc1nn(-c2ccc3nnc(C)n3n2)c(C)c1CCC(=O)N1CCN(Cc2ccc(S(C)(=O)=O)cc2)CC1 [Example 116] | ≤ 3 µM | –
17 | Cc1nn(-c2ccc3nnc(C)n3n2)c(C)c1CCC(=O)N1CCN(Cc2ccc(C(N)=O)cc2)CC1 [Example 118] | ≤ 10 µM | –
18 | Cc1nn(-c2ccc3nnc(C)n3n2)c(C)c1CCC(=O)N1CCC(C)(Cc2ccccc2)C1 (stereo not shown) [Example 119] | ≤ 3 µM | –
19 | Cc1cc(CN2CCN(C(=O)CCc3c(C)nn(-c4ccc5nnc(C)n5n4)c3C)CC2)ccc1[N+](=O)[O-] [Example 122] | ≤ 3 µM | –
20 | CC(=O)c1cccc(CN2CCN(C(=O)CCc3c(C)nn(-c4ccc5nnc(C)n5n4)c3C)CC2)c1 [Example 125] | ≤ 3 µM | –

Row | SMILES | IC50 | inhibition at 100 µM
21 | Cc1nn(-c2ccc3nnc(C)n3n2)c(C)c1CCC(=O)N1CCN(Cc2ccccc2C#N)CC1 [Example 127] | ≤ 10 µM | –
22 | Cc1nn(-c2ccc3nnc(C)n3n2)c(C)c1CCC(=O)N1CCN(Cc2cccc(-c3ccccc3)c2)CC1 [Example 128] | ≤ 10 µM | –
23 | Cc1cc(CN2CCN(C(=O)CCc3c(C)nn(-c4ccc5nnc(C)n5n4)c3C)CC2)cc([N+](=O)[O-])c1 [Example 129] | ≤ 3 µM | –
24 | Cc1nn(-c2ccc3nnc(C)n3n2)c(C)c1CCC(=O)N1CCN(Cc2ccc(S(N)(=O)=O)cc2)CC1 [Example 130] | ≤ 3 µM | –
25 | Cc1nn(-c2ccc3nnc(C)n3n2)c(C)c1CCC(=O)N1CCN(Cc2ccc(C(=O)O)c(F)c2)CC1 [Example 131] | ≤ 3 µM | –
26 | Cc1nn(-c2ccc3nnc(C)n3n2)c(C)c1CCC(=O)N1CCN(Cc2ccc(Cl)cc2Cl)CC1 [Example 132] | ≤ 10 µM | –
27 | Cc1cccc(CN2CCN(C(=O)CCc3c(C)nn(-c4ccc5nnc(C)n5n4)c3C)CC2)c1 [Example 133] | ≤ 10 µM | –
28 | Cc1nn(-c2ccc3nnc(C)n3n2)c(C)c1CCC(=O)N1CCN(Cc2cccc(I)c2)CC1 [Example 134] | ≤ 3 µM | –
29 | Cc1nn(-c2ccc3nnc(C)n3n2)c(C)c1CCC(=O)N1CCN(Cc2ccc(Cl)c(Cl)c2)CC1 [Example 135] | ≤ 3 µM | –
30 | Cc1nn(-c2ccc3nnc(C)n3n2)c(C)c1CCC(=O)N1CCN(Cc2ccc3cn[nH]c3c2)CC1 [Example 137] | ≤ 10 µM | –
31 | Cc1nn(-c2ccc3nnc(C)n3n2)c(C)c1CCC(=O)N1CCN(Cc2ccc(F)c(F)c2)CC1 [Example 140] | ≤ 30 µM | –
32 | Cc1nn(-c2ccc3nnc(C)n3n2)c(C)c1CCC(=O)N1CCN(Cc2c(Cl)cccc2Cl)CC1 [Example 142] | ≤ 10 µM | –
33 | Cc1nn(-c2ccc3nnc(C)n3n2)c(C)c1CCC(=O)N1CCN(Cc2cc(F)c(O)c(F)c2)CC1 [Example 146] | ≤ 3 µM | –
34 | Cc1nn(-c2ccc3nnc(C)n3n2)c(C)c1CCC(=O)N1CCN(Cc2cccc([N+](=O)[O-])c2)CC1 [Example 149] | ≤ 10 µM | –
35 | Cc1nn(-c2ccc3nnc(C)n3n2)c(C)c1CCC(=O)N1CCN(Cc2cccc(C(N)=O)c2)CC1 [Example 151] | ≤ 10 µM | –
36 | Cc1nn(-c2ccc3nnc(C)n3n2)c(C)c1CCC(=O)N1CCN(Cc2cccc3cccnc23)CC1 [Example 153] | ≤ 3 µM | –
37 | Cc1nn(-c2ccc3nnc(C)n3n2)c(C)c1CCC(=O)N1CCN(Cc2cccc(NS(C)(=O)=O)c2)CC1 [Example 156] | ≤ 10 µM | –
38 | COc1ccc(CN2CCN(C(=O)CCc3c(C)nn(-c4ccc5nnc(C)n5n4)c3C)CC2)cc1 [Example 157] | ≤ 10 µM | –
39 | Cc1nn(-c2ccc3nnc(C)n3n2)c(C)c1CCC(=O)N1CCN(Cc2cccc(F)c2)CC1 [Example 158] | ≤ 10 µM | –

Further lines, results first:

Row | IC50 | inhibition at 100 µM | SMILES
40 | ≤ 3 µM | – | COC(=O)c1ccc(CN2CCN(C(=O)CCc3c(C)nn(-c4ccc5nnc(C)n5n4)c3C)CC2)cc1 [Example 96]
41 | – | ≥ 30% | Cc1nn(-c2ccc3nnc(C)n3n2)c(C)c1CCC(=O)N1CCCC(Cc2ccccc2)C1 (stereo not shown) [Example 103]
42 | ≤ 10 µM | – | Cc1nn(-c2ccc3nnc(C)n3n2)c(C)c1CCC(=O)N1CCN(Cc2ccc(-c3ccccc3)cc2)CC1 [Example 113]
43 | ≤ 10 µM | – | Cc1nn(-c2ccc3nnc(C)n3n2)c(C)c1CCC(=O)N1CCN(Cc2ccc(N(C)C)cc2)CC1 [Example 114]
44 | ≤ 3 µM | – | Cc1nn(-c2ccc3nnc(C)n3n2)c(C)c1CCC(=O)N1CCN(Cc2ccc([N+](=O)[O-])cc2)CC1 [Example 115]
45 | ≤ 10 µM | – | Cc1nn(-c2ccc3nnc(C)n3n2)c(C)c1CCC(=O)N1CCN(Cc2ccc(NS(C)(=O)=O)cc2)CC1 [Example 117]
46 | ≤ 3 µM | – | Cc1cc(C(=O)O)ccc1CN1CCN(C(=O)CCc2c(C)nn(-c3ccc4nnc(C)n4n3)c2C)CC1 [Example 121]
47 | ≤ 3 µM | – | Cc1nn(-c2ccc3nnc(C)n3n2)c(C)c1CCC(=O)N1CCN(Cc2ccc(O)c(Cl)c2)CC1 [Example 123]
48 | ≤ 3 µM | – | Cc1nn(-c2ccc3nnc(C)n3n2)c(C)c1CCC(=O)N1CCN(Cc2cccc(C#N)c2)CC1 [Example 126]
49 | ≤ 10 µM | – | Cc1nn(-c2ccc3nnc(C)n3n2)c(C)c1CCC(=O)N1CCN(Cc2ccc(C(F)(F)F)c(F)c2)CC1 [Example 136]
50 | ≤ 10 µM | – | Cc1nn(-c2ccc3nnc(C)n3n2)c(C)c1CCC(=O)N1CCN(Cc2cccc3ncccc23)CC1 [Example 138]
51 | ≤ 30 µM | – | Cc1ccc(CN2CCN(C(=O)CCc3c(C)nn(-c4ccc5nnc(C)n5n4)c3C)CC2)cc1 [Example 139]
52 | ≤ 30 µM | – | Cc1nn(-c2ccc3nnc(C)n3n2)c(C)c1CCC(=O)N1CCN(Cc2cccc3ccccc23)CC1 [Example 141]
53 | ≤ 30 µM | – | Cc1nn(-c2ccc3nnc(C)n3n2)c(C)c1CCC(=O)N1CCN(Cc2ccc(Cl)cc2)CC1 [Example 143]
54 | ≤ 10 µM | – | Cc1nn(-c2ccc3nnc(C)n3n2)c(C)c1CCC(=O)N1CCN(Cc2ccccc2Cl)CC1 [Example 144]
55 | ≤ 10 µM | – | Cc1nn(-c2ccc3nnc(C)n3n2)c(C)c1CCC(=O)N1CCC(CCc2ccccc2)CC1 [Example 145]
56 | ≤ 10 µM | – | Cc1nn(-c2ccc3nnc(C)n3n2)c(C)c1CCC(=O)N1CCN(Cc2ccc3cccnc3c2)CC1 [Example 150]
57 | ≤ 3 µM | – | Cc1nn(-c2ccc3nnc(C)n3n2)c(C)c1CCC(=O)N1CCN(Cc2cccc(-c3nn[nH]n3)c2)CC1 [Example 154]
58 | ≤ 3 µM | – | Cc1nn(-c2ccc3nnc(C)n3n2)c(C)c1CCC(=O)N1CCN(Cc2cccc(S(C)(=O)=O)c2)CC1 [Example 155]
